Tests used:
[1] = Test G: Determination of in vitro Stability, human liver microsomes; type: in vitro ADME; details: liver microsomes from humans, 37° C., up to 60 minutes
Description: (§1) Determination of in vitro Stability
(§2) Liver microsomes were prepared from Sprague-Dawley rats and human liver samples according to internal SOPs. The compounds were incubated at 37° C. at a total microsome protein concentration of 3 mg/mL in a 0.05 mol/L TRIS buffer at pH 7.4, in the presence of the cofactors NADH (2.5 mmol/L) and NADPH (0.8 mmol/L). The initial concentration of compound was 5 or 10 μmol/L. Samples were taken for analysis up to 60 minutes after the start of the incubation. The enzymatic activity in the collected sample was immediately stopped by adding 20% […] at a volume corresponding to 3.3% of the total sample volume. The concentration of compound remaining (FINAL CONC) in the 60 min. sample was determined by means of LCMS using a sample collected at zero time as reference (START CONC). The % of degraded thrombin inhibitor was calculated as: [formula]

[2] = Test G: Determination of in vitro Stability, rat liver microsomes; type: in vitro ADME, Sprague-Dawley rats; details: liver microsomes from rats, 37° C., up to 60 minutes
Description: as §1, §2

[3] = Test E: Determination of Thrombin Time ex vivo (plasma concentration of thrombin inhibitor after oral or parenteral administration); type: in vivo, rat; details: conscious rats
Description: Determination of Thrombin Time ex vivo
The inhibition of thrombin after oral or parenteral administration of the compounds of the invention, dissolved in ethanol:Solutol™:water (5:5:90), is examined in conscious rats which, one or two days prior to the experiment, are equipped with a catheter for blood sampling from the carotid artery. On the experimental day blood samples are withdrawn at fixed times after the administration of the compound into plastic tubes containing 1 part sodium citrate solution (0.13 mol per L) and 9 parts of blood. The tubes are centrifuged to obtain platelet poor plasma.
50 μL of plasma samples are precipitated with 100 μL of cold acetonitrile. The samples are centrifuged for 10 minutes at 4000 rpm. 75 μL of the supernatant is diluted with 75 μL of 0.2% formic acid. 10 μL volumes of the resulting solutions are analysed by LC-MS/MS and the concentrations of thrombin inhibitor are determined using standard curves.

| Structure (SMILES) | conversion to the corresponding active inhibitor (free amidine) [1] | conversion to the corresponding active inhibitor (free amidine) [2] | oral and/or parenteral bioavailability as the corresponding active inhibitor (free amidine) [3] |
| --- | --- | --- | --- |
| CNc1cc(Cl)cc([C@@H](O)C(=O)N2CC[C@H]2C(=O)NCc2ccc(C(N)=NOC)cc2)c1 [Example 3, Ph(3-Cl)(5-NHMe)-(R)CH(OH)C(O)-(S)Aze-Pab(OMe)] | converted to the corresponding active inhibitor (free amidine) | converted to the corresponding active inhibitor (free amidine) | exhibit oral and/or parenteral bioavailability in the rat as the corresponding active inhibitor (free amidine) |
| CC(=O)Nc1cc(Cl)cc([C@@H](O)C(=O)N2CC[C@H]2C(=O)NCc2ccc(C(N)=NOC(C)C)cc2)c1 [Example 6, Ph(3-Cl)(5-NHAc)-(R)CH(OH)C(O)-(S)Aze-Pab(OiPr)] | – | – | exhibit oral and/or parenteral bioavailability in the rat as the corresponding active inhibitor (free amidine) |

From patent publication US6433186B1, “Amidino derivatives and their use as thormbin inhibitors” (AstraZeneca AB, priority 2000, dated 2002)
